Experimental data from the NIST ThermoML archive (doi:10.1021/acs.jced.8b00153).
± gives the expanded uncertainty stated by the source.

Key:
[1] = refractive index (Na D-line) (dimensionless); conditions: 100 kPa, Liquid, Standard Abbe refractometry
[2] = relative permittivity at various frequencies (dimensionless); conditions: 100 kPa, Liquid, Frequency=2 MHz, Parallel plate capacitor

**Q.** Which refractive index ([1]; 283.15 K) does the source give for `CCc1ccco1` [2-ethylfuran] here?
**A.** 1.44533 ± 0.00033

**Q.** And the refractive index ([1]; 285.65 K)?
**A.** 1.4439 ± 0.00033

**Q.** And the refractive index ([1]; 288.15 K)?
**A.** 1.44245 ± 0.00033

**Q.** And the refractive index ([1]; 290.65 K)?
**A.** 1.44101 ± 0.00033

**Q.** And the refractive index ([1]; 293.15 K)?
**A.** 1.43956 ± 0.00033

**Q.** What about the refractive index ([1]; 295.65 K) of the same compound?
**A.** 1.43817 ± 0.00033

**Q.** What about the refractive index ([1]; 298.15 K) of the same compound?
**A.** 1.43672 ± 0.00033

**Q.** And the refractive index ([1]; 300.65 K)?
**A.** 1.43531 ± 0.00033

**Q.** What about the refractive index ([1]; 303.15 K) of the same compound?
**A.** 1.43387 ± 0.00033

**Q.** And the refractive index ([1]; 305.65 K)?
**A.** 1.43244 ± 0.00033

**Q.** And the refractive index ([1]; 308.15 K)?
**A.** 1.431 ± 0.00033

**Q.** And the refractive index ([1]; 310.65 K)?
**A.** 1.42958 ± 0.00033

**Q.** And the refractive index ([1]; 313.15 K)?
**A.** 1.42814 ± 0.00033

**Q.** What about the refractive index ([1]; 315.65 K) of the same compound?
**A.** 1.42671 ± 0.00033

**Q.** And the refractive index ([1]; 318.15 K)?
**A.** 1.42528 ± 0.00033

**Q.** And the refractive index ([1]; 320.65 K)?
**A.** 1.42385 ± 0.00033

**Q.** What about the refractive index ([1]; 323.15 K) of the same compound?
**A.** 1.42241 ± 0.00033

**Q.** And the refractive index ([1]; 325.65 K)?
**A.** 1.42097 ± 0.00033

**Q.** And the refractive index ([1]; 328.15 K)?
**A.** 1.41953 ± 0.00033

**Q.** And the refractive index ([1]; 330.65 K)?
**A.** 1.4181 ± 0.00033

**Q.** What about the refractive index ([1]; 333.15 K) of the same compound?
**A.** 1.41669 ± 0.00033

**Q.** What about the refractive index ([1]; 335.65 K) of the same compound?
**A.** 1.41523 ± 0.00033

**Q.** And the refractive index ([1]; 338.15 K)?
**A.** 1.41379 ± 0.00033

**Q.** What about the relative permittivity ([2]; 278.15 K) of the same compound?
**A.** 2.837 ± 0.33

**Q.** What about the relative permittivity ([2]; 280.65 K) of the same compound?
**A.** 2.823 ± 0.32

**Q.** What about the relative permittivity ([2]; 283.15 K) of the same compound?
**A.** 2.813 ± 0.32

**Q.** What about the relative permittivity ([2]; 285.65 K) of the same compound?
**A.** 2.798 ± 0.32

**Q.** What about the relative permittivity ([2]; 288.15 K) of the same compound?
**A.** 2.784 ± 0.32

**Q.** What about the relative permittivity ([2]; 290.65 K) of the same compound?
**A.** 2.766 ± 0.32

**Q.** What about the relative permittivity ([2]; 293.15 K) of the same compound?
**A.** 2.756 ± 0.32

**Q.** What about the relative permittivity ([2]; 295.65 K) of the same compound?
**A.** 2.739 ± 0.32

**Q.** What about the relative permittivity ([2]; 298.15 K) of the same compound?
**A.** 2.725 ± 0.32

**Q.** What about the relative permittivity ([2]; 300.65 K) of the same compound?
**A.** 2.709 ± 0.32

**Q.** And the relative permittivity ([2]; 303.15 K)?
**A.** 2.699 ± 0.32

**Q.** What about the relative permittivity ([2]; 305.65 K) of the same compound?
**A.** 2.682 ± 0.32

**Q.** What about the relative permittivity ([2]; 308.15 K) of the same compound?
**A.** 2.668 ± 0.32

**Q.** And the relative permittivity ([2]; 310.65 K)?
**A.** 2.657 ± 0.32

**Q.** And the relative permittivity ([2]; 313.15 K)?
**A.** 2.643 ± 0.32

**Q.** What about the relative permittivity ([2]; 315.65 K) of the same compound?
**A.** 2.626 ± 0.32

**Q.** And the relative permittivity ([2]; 318.15 K)?
**A.** 2.611 ± 0.32

**Q.** And the relative permittivity ([2]; 320.65 K)?
**A.** 2.601 ± 0.32

**Q.** What about the relative permittivity ([2]; 323.15 K) of the same compound?
**A.** 2.583 ± 0.31

**Q.** And the relative permittivity ([2]; 325.65 K)?
**A.** 2.573 ± 0.31

**Q.** What about the relative permittivity ([2]; 328.15 K) of the same compound?
**A.** 2.559 ± 0.31

**Q.** And the relative permittivity ([2]; 330.65 K)?
**A.** 2.544 ± 0.31

**Q.** And the relative permittivity ([2]; 333.15 K)?
**A.** 2.527 ± 0.31

**Q.** And the relative permittivity ([2]; 335.65 K)?
**A.** 2.516 ± 0.31

**Q.** What about the relative permittivity ([2]; 338.15 K) of the same compound?
**A.** 2.503 ± 0.31

**Q.** With `CCc1cccs1` [2-ethylthiophene] as the compound, how does the refractive index ([1]; 283.15 K) read?
**A.** 1.51841 ± 0.00037

**Q.** What about the refractive index ([1]; 285.65 K) of the same compound?
**A.** 1.51699 ± 0.00037

**Q.** What about the refractive index ([1]; 288.15 K) of the same compound?
**A.** 1.51557 ± 0.00037

**Q.** And the refractive index ([1]; 290.65 K)?
**A.** 1.51417 ± 0.00037

**Q.** And the refractive index ([1]; 293.15 K)?
**A.** 1.51272 ± 0.00037

**Q.** And the refractive index ([1]; 295.65 K)?
**A.** 1.51125 ± 0.00037

**Q.** What about the refractive index ([1]; 298.15 K) of the same compound?
**A.** 1.50981 ± 0.00037

**Q.** What about the refractive index ([1]; 300.65 K) of the same compound?
**A.** 1.50841 ± 0.00037

**Q.** And the refractive index ([1]; 303.15 K)?
**A.** 1.50698 ± 0.00037

**Q.** What about the refractive index ([1]; 305.65 K) of the same compound?
**A.** 1.50556 ± 0.00037

**Q.** What about the refractive index ([1]; 308.15 K) of the same compound?
**A.** 1.50413 ± 0.00037

**Q.** What about the refractive index ([1]; 310.65 K) of the same compound?
**A.** 1.50269 ± 0.00037

**Q.** What about the refractive index ([1]; 313.15 K) of the same compound?
**A.** 1.50125 ± 0.00037

**Q.** What about the refractive index ([1]; 315.65 K) of the same compound?
**A.** 1.49981 ± 0.00037

**Q.** And the refractive index ([1]; 318.15 K)?
**A.** 1.49836 ± 0.00037

**Q.** And the refractive index ([1]; 320.65 K)?
**A.** 1.49695 ± 0.00037

**Q.** And the refractive index ([1]; 323.15 K)?
**A.** 1.4955 ± 0.00037

**Q.** And the refractive index ([1]; 325.65 K)?
**A.** 1.49405 ± 0.00037

**Q.** And the refractive index ([1]; 328.15 K)?
**A.** 1.49261 ± 0.00037

**Q.** And the refractive index ([1]; 330.65 K)?
**A.** 1.49116 ± 0.00037

**Q.** What about the refractive index ([1]; 333.15 K) of the same compound?
**A.** 1.48973 ± 0.00037

**Q.** And the refractive index ([1]; 335.65 K)?
**A.** 1.48827 ± 0.00037

**Q.** And the refractive index ([1]; 338.15 K)?
**A.** 1.48684 ± 0.00037

**Q.** And the relative permittivity ([2]; 278.15 K)?
**A.** 2.968 ± 0.33

**Q.** And the relative permittivity ([2]; 280.65 K)?
**A.** 2.959 ± 0.33

**Q.** And the relative permittivity ([2]; 283.15 K)?
**A.** 2.946 ± 0.33

**Q.** What about the relative permittivity ([2]; 285.65 K) of the same compound?
**A.** 2.936 ± 0.33

**Q.** What about the relative permittivity ([2]; 288.15 K) of the same compound?
**A.** 2.929 ± 0.33

**Q.** What about the relative permittivity ([2]; 290.65 K) of the same compound?
**A.** 2.916 ± 0.33

**Q.** What about the relative permittivity ([2]; 293.15 K) of the same compound?
**A.** 2.911 ± 0.33

**Q.** What about the relative permittivity ([2]; 295.65 K) of the same compound?
**A.** 2.9 ± 0.33

**Q.** What about the relative permittivity ([2]; 298.15 K) of the same compound?
**A.** 2.887 ± 0.33

**Q.** What about the relative permittivity ([2]; 300.65 K) of the same compound?
**A.** 2.878 ± 0.33

**Q.** And the relative permittivity ([2]; 303.15 K)?
**A.** 2.871 ± 0.33

**Q.** What about the relative permittivity ([2]; 305.65 K) of the same compound?
**A.** 2.858 ± 0.33

**Q.** And the relative permittivity ([2]; 308.15 K)?
**A.** 2.848 ± 0.33

**Q.** What about the relative permittivity ([2]; 310.65 K) of the same compound?
**A.** 2.838 ± 0.33

**Q.** And the relative permittivity ([2]; 313.15 K)?
**A.** 2.833 ± 0.33

**Q.** And the relative permittivity ([2]; 315.65 K)?
**A.** 2.82 ± 0.32

**Q.** And the relative permittivity ([2]; 318.15 K)?
**A.** 2.81 ± 0.32

**Q.** What about the relative permittivity ([2]; 320.65 K) of the same compound?
**A.** 2.799 ± 0.32

**Q.** What about the relative permittivity ([2]; 323.15 K) of the same compound?
**A.** 2.792 ± 0.32

**Q.** What about the relative permittivity ([2]; 325.65 K) of the same compound?
**A.** 2.782 ± 0.32

**Q.** What about the relative permittivity ([2]; 328.15 K) of the same compound?
**A.** 2.775 ± 0.32

**Q.** And the relative permittivity ([2]; 330.65 K)?
**A.** 2.766 ± 0.32

**Q.** What about the relative permittivity ([2]; 333.15 K) of the same compound?
**A.** 2.753 ± 0.32

**Q.** And the relative permittivity ([2]; 335.65 K)?
**A.** 2.745 ± 0.32

**Q.** And the relative permittivity ([2]; 338.15 K)?
**A.** 2.734 ± 0.32
